Source: PMC3509132, “Global Epigenetic Changes Induced by SWI2/SNF2 Inhibitors Characterize Neomycin-Resistant Mammalian Cells” (PLoS ONE, 2012)
Where two headings read alike, the source gives them in different places.

Assays:
ADAAD [1] = target: T1, ADAAD (Bos taurus, UniProt Q9TTA5); conditions: ADAAD alone; His-ADAAD; ref Nongkhlaw et al. (Nongkhlaw, 2009); cited from earlier work
T1 sequence (Q9TTA5 229-940 limits assumed): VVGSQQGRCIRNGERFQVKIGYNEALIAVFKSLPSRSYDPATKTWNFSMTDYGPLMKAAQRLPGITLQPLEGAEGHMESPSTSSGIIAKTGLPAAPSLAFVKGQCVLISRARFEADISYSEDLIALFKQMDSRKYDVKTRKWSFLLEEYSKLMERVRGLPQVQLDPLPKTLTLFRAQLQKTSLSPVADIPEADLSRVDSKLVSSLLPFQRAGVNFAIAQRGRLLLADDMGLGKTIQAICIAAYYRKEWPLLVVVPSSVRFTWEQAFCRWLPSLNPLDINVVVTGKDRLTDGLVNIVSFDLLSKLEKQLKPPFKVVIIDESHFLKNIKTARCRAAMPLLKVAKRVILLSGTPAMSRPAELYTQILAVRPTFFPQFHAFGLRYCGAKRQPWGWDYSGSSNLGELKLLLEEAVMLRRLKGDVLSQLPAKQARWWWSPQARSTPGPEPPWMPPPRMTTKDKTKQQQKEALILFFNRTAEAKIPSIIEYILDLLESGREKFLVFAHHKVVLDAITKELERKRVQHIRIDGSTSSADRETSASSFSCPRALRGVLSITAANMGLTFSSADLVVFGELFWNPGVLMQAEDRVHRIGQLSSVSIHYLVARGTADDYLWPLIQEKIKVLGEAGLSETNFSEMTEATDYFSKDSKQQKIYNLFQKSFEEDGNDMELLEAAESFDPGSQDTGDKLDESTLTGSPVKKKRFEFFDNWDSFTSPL

ADAAD [2] = target: T1, ADAAD; experiment: Intrinsic tryptophan fluorescence quenching binding titration with His-ADAAD; conditions: His-ADAAD, read-out: Kd
Protocol: (§1) His-ADAAD, used for binding studies, was purified as described previously. For mapping and CD studies, ADAAD as well as deletion constructs were expressed as GST-fusion protein in BL21 (DE3) cells and purified as described previously. In case of deletion constructs the GST-tag was not cleaved as the resultant proteins were not stable.
(§2) Fluorescence was measured at 25°C using Cary-Varian spectrofluorimeter as described previously. Stem-loop DNA (5′- […]-3′), synthesized by Sigma-Aldrich, was used in these studies. The intrinsic fluorescence quenching data obtained with acrylamide was analyzed using Stern-Volmer plots as described previously, [14].
To understand the interaction of ADAADi with ADAAD, a member of the SWI2/SNF2 family, we synthesized ADAADi using kanamycin and neomycin. These derivatives, ADAADiK and ADAADiN respectively, were purified and titrated with protein while monitoring the quenching of the intrinsic tryptophan fluorescence. […] This binding constant was same as that in the absence of ATP and slDNA. A similar result was obtained with ADAADiK (Figure S3A and S3B; Table 1). We thus conclude that the interaction of the inhibitor with ADAAD is independent of these two ligands.

[3] = system: MAD28 (ADAAD deletion construct; motifs Q, I); experiment: Fluorescence binding titration, deletion construct MAD28; conditions: GST fusion
Protocol: as §1, §2

[4] = target: T2, MAD 53 (ADAAD deletion construct; motifs Ia, II, III, IV, V, VI) (Bos taurus, UniProt Q9TTA5); experiment: Fluorescence binding titration, deletion construct MAD53; conditions: GST fusion
T2 sequence (Q9TTA5 465-940): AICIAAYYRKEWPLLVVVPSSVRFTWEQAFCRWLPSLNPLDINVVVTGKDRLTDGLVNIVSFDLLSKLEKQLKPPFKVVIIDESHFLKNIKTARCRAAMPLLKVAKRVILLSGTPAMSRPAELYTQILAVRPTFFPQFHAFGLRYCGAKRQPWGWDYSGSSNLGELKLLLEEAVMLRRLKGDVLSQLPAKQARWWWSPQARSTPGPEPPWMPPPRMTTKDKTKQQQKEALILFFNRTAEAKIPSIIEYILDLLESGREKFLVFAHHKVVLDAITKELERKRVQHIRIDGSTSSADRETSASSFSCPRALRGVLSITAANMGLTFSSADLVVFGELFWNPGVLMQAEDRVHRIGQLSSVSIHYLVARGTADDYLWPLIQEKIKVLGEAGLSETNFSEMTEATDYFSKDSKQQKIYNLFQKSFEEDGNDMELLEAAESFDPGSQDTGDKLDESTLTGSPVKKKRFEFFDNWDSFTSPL
Protocol: as §1, §2
(§3) ADAAD contains the conserved helicase motifs (Table 2). Three deletion constructs of ADAAD-MAD47, MAD33, and MAD53-lacking DNA-dependent ATPase activity were used to delineate the interaction region (Table 2). The Kd values for the interaction of ADAADiN with MAD47 and MAD 33 were similar to that of wild type leading to the conclusion that motifs Q, I, and Ia are sufficient for the ADAADi-ADAAD interaction. In contrast, these three motifs are not sufficient for the slDNA-ADAAD interaction (Table 2). […]

[5] = target: T3, MAD 47 (ADAAD deletion construct; motifs Q, I, Ia, II, III) (Bos taurus, UniProt Q9TTA5); experiment: Fluorescence binding titration, deletion construct MAD47
T3 sequence (Q9TTA5 211-635): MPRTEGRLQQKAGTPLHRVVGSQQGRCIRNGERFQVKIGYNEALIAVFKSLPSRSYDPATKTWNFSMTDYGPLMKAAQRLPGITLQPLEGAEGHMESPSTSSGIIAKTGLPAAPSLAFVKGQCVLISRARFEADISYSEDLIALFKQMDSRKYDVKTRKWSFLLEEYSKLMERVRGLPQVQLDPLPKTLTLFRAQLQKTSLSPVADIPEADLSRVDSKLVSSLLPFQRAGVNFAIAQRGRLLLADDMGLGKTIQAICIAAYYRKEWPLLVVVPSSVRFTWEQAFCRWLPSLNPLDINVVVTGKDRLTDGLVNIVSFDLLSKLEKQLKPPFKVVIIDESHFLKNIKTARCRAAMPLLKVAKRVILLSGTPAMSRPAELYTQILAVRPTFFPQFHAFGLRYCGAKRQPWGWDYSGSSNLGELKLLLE
Protocol: as §1, §2, §3

[6] = target: T4, MAD8 (ADAAD deletion construct; motif Ia) (Bos taurus, UniProt Q9TTA5); experiment: Fluorescence binding titration, deletion construct MAD8; conditions: GST fusion
T4 sequence (Q9TTA5 465-535): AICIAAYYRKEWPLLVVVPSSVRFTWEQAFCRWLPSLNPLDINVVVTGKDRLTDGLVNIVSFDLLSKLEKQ
Protocol: as §1, §2

[7] = target: T5, MAD 33 (ADAAD deletion construct; motifs Q, I, Ia) (Bos taurus, UniProt Q9TTA5); experiment: Fluorescence binding titration, deletion construct MAD33; conditions: GST fusion
T5 sequence (Q9TTA5 211-507): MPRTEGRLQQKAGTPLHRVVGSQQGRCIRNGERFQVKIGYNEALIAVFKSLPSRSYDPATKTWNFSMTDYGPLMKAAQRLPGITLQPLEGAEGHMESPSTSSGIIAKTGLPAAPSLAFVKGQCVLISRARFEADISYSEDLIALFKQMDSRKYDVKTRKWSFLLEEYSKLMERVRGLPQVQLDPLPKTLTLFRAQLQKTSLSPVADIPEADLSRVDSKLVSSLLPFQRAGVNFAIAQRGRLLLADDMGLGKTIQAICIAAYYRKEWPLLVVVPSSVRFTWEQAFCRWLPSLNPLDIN
Protocol: as §1, §2, §3

[8] = target: T6, ADAAD wild type (GST cleaved) (UniProt Q9TTA5 229-940); experiment: intrinsic tryptophan fluorescence quenching; Fluorescence at 25 C (Cary-Varian spectrofluorimeter); buffer, salt and pH not given (as in ref 13); conditions: protein: recombinant; tags: none (GST removed with PreScission); hairpin
T6 sequence: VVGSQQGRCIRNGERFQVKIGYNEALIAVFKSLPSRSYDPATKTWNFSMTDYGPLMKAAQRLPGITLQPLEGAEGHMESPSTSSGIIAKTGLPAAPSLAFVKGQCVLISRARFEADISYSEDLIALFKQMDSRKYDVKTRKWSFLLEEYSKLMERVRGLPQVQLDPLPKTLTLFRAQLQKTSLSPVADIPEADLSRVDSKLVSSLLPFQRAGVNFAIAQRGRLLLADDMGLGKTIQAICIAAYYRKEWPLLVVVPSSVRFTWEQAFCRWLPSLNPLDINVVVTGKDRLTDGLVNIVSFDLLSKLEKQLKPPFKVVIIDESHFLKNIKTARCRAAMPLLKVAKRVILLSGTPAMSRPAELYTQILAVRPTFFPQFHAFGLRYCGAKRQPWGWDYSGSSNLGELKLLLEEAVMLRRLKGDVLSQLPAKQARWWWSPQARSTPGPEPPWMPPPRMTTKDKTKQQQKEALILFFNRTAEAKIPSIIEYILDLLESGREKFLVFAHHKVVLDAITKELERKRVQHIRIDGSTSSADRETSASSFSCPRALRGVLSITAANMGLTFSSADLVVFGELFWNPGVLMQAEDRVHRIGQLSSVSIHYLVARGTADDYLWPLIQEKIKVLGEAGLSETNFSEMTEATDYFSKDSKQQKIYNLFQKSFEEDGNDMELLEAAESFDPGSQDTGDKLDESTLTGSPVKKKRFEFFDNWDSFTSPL

For “slDNA: Stem-loop DNA (5′- GCGCAATTGCGCTCGACGATTTTTTAGCGCAATTGCGC-3′), a well-characterized DNA effector of ADAAD (DNA, backbone and methylation of C not given here; stem-loop DNA)”, the Kd (ADAAD [1]) is listed as 19.9 nM, the Kd (ADAAD [2]; ADAAD + ADAADiK (2 μM ADAADiK)) is listed as 0.46 nM and the Kd (ADAAD [2]; ADAAD + ADAADiN (saturated with 2 μM ADAADiN)) is listed as 0.63 nM. It also gave a Kd [3] of 22.1 nM, a Kd [4] of 8.2 nM and a Kd [5] of 6.5 nM. It also gave a Kd [6] of 8.7 nM and a Kd [7] of 41.5 nM.

Molecule GCGCAATTGCGCTCGACGATTTTTTAGCGCAATTGCGC (structured_DNA) [slDNA (stem-loop DNA)] has a Kd [8] of 3.8 ± 1.1 nM.
